Laboratory results taken from patent publication US20240189315A1, “Cyclic Pyridine Derivatives as cGAS Inhibitors” (Boehringer Ingelheim International GmbH, priority 2022, published 2024).
Where two headings read alike, the source gives them in different places.

Columns and labels:
[1] = molecular target: cellular cGAS activity in dsDNA-stimulated human whole blood (Homo sapiens (Human), UniProt Q8N884); experiment: Human whole blood assay (hWB IC50): IFNα2a production after dsDNA transfection; assay type: cell-based;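 also: IFNα-2a in plasma measured by MSD electrochemiluminescence immunoassay after 22 h at 37 °C, 8-point dilution series from 10 µM top concentration, DMSO wells as controls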
Chain of cellular cGAS activity in dsDNA-stimulated human whole blood (Q8N884 whole entry): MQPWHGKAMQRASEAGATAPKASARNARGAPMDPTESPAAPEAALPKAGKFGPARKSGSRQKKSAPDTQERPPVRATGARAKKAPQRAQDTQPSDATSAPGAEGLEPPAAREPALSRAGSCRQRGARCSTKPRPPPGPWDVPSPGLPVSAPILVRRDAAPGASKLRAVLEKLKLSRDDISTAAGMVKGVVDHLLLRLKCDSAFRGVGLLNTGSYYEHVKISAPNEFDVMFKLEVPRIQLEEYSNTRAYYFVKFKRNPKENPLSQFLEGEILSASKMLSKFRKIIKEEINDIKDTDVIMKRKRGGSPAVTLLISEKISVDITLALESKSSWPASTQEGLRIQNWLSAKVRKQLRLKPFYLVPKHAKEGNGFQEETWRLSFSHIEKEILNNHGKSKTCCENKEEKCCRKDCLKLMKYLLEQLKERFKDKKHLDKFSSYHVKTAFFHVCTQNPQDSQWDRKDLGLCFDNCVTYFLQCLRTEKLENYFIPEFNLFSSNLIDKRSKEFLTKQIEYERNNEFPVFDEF

[2] = molecular target: cellular cGAS activity in baculovirus-stimulated THP1-Dual cells (Homo sapiens (Human), UniProt Q8N884); experiment: Human cGAS cell assay (THP1(vir) IC50): IFN induction in virus-stimulated THP1-Dual cells, IRF Lucia luciferase reporter; assay type: cell-based;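 also: Eight-point dilution series starting at 10 µM, 1% DMSO, 18 h at 37 °C, luminescence read-out, virus-free wells as 0% and DMSO-treated virus-stimulated wells as 100%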
Chain of cellular cGAS activity in baculovirus-stimulated THP1-Dual cells (Q8N884 whole entry): as above

[3] = system: pathway directly downstream of cGAS in cGAMP-stimulated THP1-Dual cells; experiment: cGAMP stimulated counter cell assay (THP1(cGAMP) IC50): IFN induction in cGAMP-stimulated THP1-Dual cells; assay type: cell-based, human; settings: for IC50: Homo sapiens, THP1-Dual; for Ratio THP(cGAMP) IC50/ THP(vir) IC50: selectivity for cGAS inhibition
From the text: 6.2 Method: Human cGAS Cell Assay and cGAMP Stimulated Counter Cell Assay (THP1(vir) IC50 and THP1(cGAMP) IC50)
THP1-Dual™ cells (InvivoGen #thpd-nfis) expressing IRF dependent Lucia luciferase reporter were used as basis for both assays. For the detection of cellular cGAS activity cells were stimulated by a baculovirus (pFastbac-1, Invitrogen, no coding insert) infection that delivers the cGAS enzyme stimulating double-stranded DNA (measurement of THP1(vir) IC50).
For the counter assay, cells were stimulated by cGAMP (SigmaAldrich #SML1232) to activate the identical pathway independent and directly downstream of cGAS (measurement of THP1(cGAMP) IC50). Pathway activity was monitored by measuring the Lucia luciferase activity induced by either DNA stimulated cGAS enzyme activity (measurement of THP1(vir) IC50) or by cGAMP directly (measurement of THP1(cGAMP) IC50, counter assay).
Compounds were delivered in 10 mM DMSO solution, serially diluted and transferred to the 384 well assay plate (Greiner #781201) using an Echo acoustic dispenser. Typically, 8 concentrations were used with the highest concentration at 10 μM in the final assay volume followed by ˜1:5 dilution steps. DMSO concentration was set to 1% in the final assay volume. The 384 well assay plate contained 21 test compounds (column 1-22), and DMSO in column 23 and 24.
Cells, cultivated according to manufacturer conditions, were harvested by centrifugation at 300 g/10 min and were then resuspended and diluted to 1.66E5 cells/ml in fresh cell culture medium (RPMI 1640 (Gibco #A10491-01), 10% FCS (Gibco #10500), 1× GlutaMax (Gibco #35050-061), 1× Pen/Strep solution (Gibco #15140-122), 100 μg/ml Normocin (InvivoGen #ant-nr), 100 μg/ml Zeocin (InvivoGen #ant-zn), 10 μg/ml Blasticidin S (Life Technologies #A11139-03)). The baculovirus solution was then added 1:200 (have varied according to virus batch) to the cells (measurement of THP1(vir) IC50). […] 30 μL of the cell/virus-mix were added to each well of the compound plate from column 1-23 via MultiDrop Combi dispenser (5000 cells/well). In column 24, 30 μl/5000 cells/well without virus were added as a low control.
The plates were then incubated for 18 h at 37° C. in a humidified incubator.
Following that, 15 μL of QuantiLuc detection reagent (InvivoGen #rep-qlcg5) were added to each well using a MultiDrop Combi. Measurement was done immediately after the addition using an EnVision reader (US-luminescence read-mode).
Data Evaluation and Calculation:
For data evaluation and calculation, the measurement of the low control was set as 0% control and the measurement of the high control was set as 100% control. The IC50 values were calculated using the standard 4 parameter logistic regression formula. Calculation: [y=(a−d)/(1+(x/c)^b)+d], a=low value, d=high value; x=conc M; c=IC50 M; b=slope

[4] = molecular target: Human cGAS enzyme (Homo sapiens (Human), UniProt Q8N884); experiment: Human cGAS enzyme assay (hcGAS IC50, in vitro), cGAMP formation by RapidFire MS; assay type: biochemical;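 also: recombinant human cGAS activated by 45 bp dsDNA with 30 µM each ATP and GTP, 90 min, cGAMP vs cyclic-di-GMP standard by MS, 8-point titration from 10 µM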
Chain of Human cGAS enzyme (Q8N884 whole entry): as above

[5] = Table 1, dsDNA-stimulated human whole blood
[6] = Table 1, virus-stimulated THP1 cells, read-out: THP(vir) IC50
[7] = Table 1, cGAMP-stimulated THP1 cells, read-out: THP(cGAMP) IC50

Compound	IC50 [1, 5] [nM]	IC50 [2, 6] [nM]	IC50 ([4]; Table 1) [nM]	IC50 [3, 7] [nM]	Ratio THP(cGAMP) IC50/ THP(vir) IC50 ([3]; Table 1)	IC50 ([1]; Table 2, compounds from WO 2020/142729) [nM]	IC50 ([2]; Table 2, compounds from WO 2020/142729, read-out: THP1(vir) IC50) [nM]	IC50 ([3]; Table 2, compounds from WO 2020/142729, read-out: THP1(cGAMP) IC50) [nM]	IC50 ([2]; virus-stimulated THP1 cells, read-out: THP1(vir) IC50) [nM]	IC50 ([4]; Table 2, compounds from WO 2020/142729 re-tested in the applicant's assay) [nM]
C[C@H]1CN2CC[C@]1(F)c1cccnc1O[C@H]1C[C@@H](C(=O)O)N(C1)c1nc(nc3c1oc1ccccc13)CCCOCCC2=O [Example 24, (1R,9S,11S,34S)-1-fluoro-34-methyl-31-oxo-8,15,28-trioxa-6,12,23,32,37-pentaazaheptacyclo-[30.2.2.1^9,12.1^13,24.0^2,7.0^14,22.0^16,21]octatriaconta-2,4,6,13(37),14(22),16(21),17,19,23-nonaene-11-carboxylic acid]	801	640	28	> 10000	16					
CC#Cc1cnc2c(c1)[C@@]1(F)CCN(C[C@@H]1C)C(=O)COCCCCc1nc(c3oc4ccccc4c3n1)N1C[C@H](C[C@H]1C(=O)O)O2 [Example 29, (1R,9S,11S,34S)-1-fluoro-34-methyl-31-oxo-4-(prop-1-yn-1-yl)-8,15,29-trioxa-6,12,23,32,37-penta-azaheptacyclo[30.2.2.1^9,12.1^13,24.0^2,7.0^14,22.0^16,21]octatriaconta-2(7),3,5,13,16(21),17,19,22,24(37)-nonaene-11-carboxylic acid]	22	57	14	2200	39					
C[C@H]1CN2CC[C@]1(F)c1cc(Cl)cnc1O[C@H]1C[C@@H](C(=O)O)N(C1)c1nc(nc3c1oc1ccccc13)C(F)(F)CCCOCC2=O [Example 31]	5	3	7	7200	3002					
C[C@H]1CN2CC[C@]1(F)c1cc(Cl)cnc1O[C@H]1C[C@@H](C(=O)O)N(C1)c1nc(nc3c1oc1cc(F)ccc13)CCCCOCC2=O [Example 30]	22	70	7	4700	67					
C[C@H]1CN2CC[C@]1(F)c1cc(Cl)cnc1O[C@H]1C[C@@H](C(=O)O)N(C1)c1nc(nc3c1oc1ccccc13)C(F)(F)CCCCC(F)(F)C2=O [Example 06, (1R,9S,11S,34S)-4-chloro-1,25,25,30,30-pentafluoro-34-methyl-31-oxo-8,15-dioxa-6,12,23,32,37-pentaazaheptacyclo[30.2.2.1^9,12.1^13,24.0^2,7.0^14,22.0^16,21]-octatriaconta-2,4,6,13(37),14(22),16(21),17,19,23-nonaene-11-carboxylic acid]	222	150	18	> 10000	65					
C[C@H]1CN2CC[C@]1(F)c1cc(Cl)cnc1O[C@H]1C[C@@H](C(=O)O)N(C1)c1nc(nc3c1oc1ccccc13)COCCOCC2=O [Example 14]	136	36	15	> 10000	282					
Cc1nc(N2C[C@@H](Cc3nn[nH]n3)C[C@H]2C(=O)O)c2oc3ccccc3c2n1 [Example 25]						> 9990	> 17000	> 17000		
Cc1nc(N2C[C@@H](Cc3nn[nH]n3)C[C@H]2C(=O)O)c2oc3ccccc3c2n1 [Example No. 25 of WO 2020/142729, reference compound]									17000	55

Further lines, with some results ahead:

IC50 [1, 5] [nM]	IC50 [2, 6] [nM]	IC50 ([4]; Table 1) [nM]	Compound	IC50 [3, 7] [nM]	Ratio THP(cGAMP) IC50/ THP(vir) IC50 ([3]; Table 1)	IC50 ([1]; Table 2, compounds from WO 2020/142729) [nM]	IC50 ([2]; Table 2, compounds from WO 2020/142729, read-out: THP1(vir) IC50) [nM]	IC50 ([3]; Table 2, compounds from WO 2020/142729, read-out: THP1(cGAMP) IC50) [nM]	IC50 ([2]; virus-stimulated THP1 cells, read-out: THP1(vir) IC50) [nM]	IC50 ([4]; Table 2, compounds from WO 2020/142729 re-tested in the applicant's assay) [nM]
115	110	17	C[C@H]1CN2CC[C@]1(F)c1cc(Cl)cnc1O[C@H]1C[C@@H](C(=O)O)N(C1)c1nc(nc3c1oc1ccccc13)CC(=O)NCCOC2=O [Example 02, (1R,9S,11S,34S)-4-chloro-1-fluoro-34-methyl-26,31-dioxo-8,15,30-trioxa-6,12,23,27,32,37-hexaazaheptacyclo[30.2.2.1^9,12.1^13,24.0^14,22..0^16,21]octatriaconta-2,4,6,13(37),14(22),16(21),17,19,23-nonaene-11-carboxylic acid]	> 10000	94					
101	36	11	C[C@H]1CN2CC[C@]1(F)c1cc(Cl)cnc1O[C@H]1C[C@@H](C(=O)O)N(C1)c1nc(nc3c1oc1ccccc13)CCOCCCC2=O [Example 16]	6600	184					
9	11	2.8	C[C@H]1CN2CC[C@]1(F)c1cc(Cl)cnc1O[C@H]1C[C@@H](C(=O)O)N(C1)c1nc(nc3c1oc1ccccc13)COC(=O)CCC2=O [Example 11, (1R,9S,11S,33S)-4-Chloro-1-fluoro-33-methyl-27,30-dioxo-8,15,26-trioxa-6,12,23,31,36-pentaazaheptacyclo[29.2.2.1^9,12.1^13,24.0^2,7.0^14,22.0^16,21]heptatriaconta-2,4,6,13(36),14(22),16(21),17,19,23-nonaene-11-carboxylic acid]	> 10000	902					
161	240	45	C[C@H]1CCCOCc2nc(c3oc4ccccc4c3n2)N2C[C@H](C[C@H]2C(=O)O)Oc2ncc(Cl)cc2[C@@]2(F)CCN(C[C@@H]2C)C1=O (single isomer, unassigned) [Example 09]	3500	15					
11	12	3	C[C@H]1CN2CC[C@]1(F)c1cc(Cl)cnc1O[C@H]1C[C@@H](C(=O)O)N(C1)c1nc(nc3c1oc1ccccc13)CCCOCC2=O [Example 37, (1R,9S,11S,33S)-4-chloro-1-fluoro-33-methyl-30-oxo-8,15,28-trioxa-6,12,23,31,36-pentaaza-heptacyclo[29.2.2.1^9,12.1^13,24.0^2,7.0^14,22.0^16,21]heptatriaconta-2,4,6,13(36),14(22),16(21),17,19,23-nonaene-11-carboxylic acid]	11000	884					
1560	490	45	C[C@H]1CN2CC[C@]1(F)c1cc(Cl)cnc1O[C@H]1C[C@@H](C(=O)O)N(C1)c1nc(nc3c1oc1ccccc13)CCCCCOC2=O [Example 22, (1R,9S,11S,34S)-4-chloro-1-fluoro-34-methyl-31-oxo-8,15,30-trioxa-6,12,23,32,37-pentaaabestacyclo[30.2.2.1^9,12.1^13,24.0^2,7.0^14,22.0^16,21]octatriaconta-2,4,6,13(37),14(22),16(21),17,19,23-nonaene-11-carboxylic acid]	> 10000	20					
409	830		C[C@H]1CN2CC[C@]1(F)c1cc(Cl)cnc1O[C@H]1C[C@@H](C(=O)O)N(C1)c1nc(nc3c1oc1ccccc13)CCCCOC2=O [Example 35, (1R,9S,11S,33S)-4-chloro-1-fluoro-33-methyl-30-oxo-8,15,29-trioxa-6,12,23,31,36-pentaazaheptacyclo[29.2.2.1^9,12.1^13,24.0^2,7.0^14,22.0^16,21]heptatriaconta-2,4,6,13(36),14(22),16(21),17,19,23-nonaene-11-carboxylic acid]							
